Numbered stars: 1 amine (or outer) side, 2 acyl side, 3 side chain; on linkers, the order of the positions; unused ones are H or OH. Bridge positions count the residues as written; N and C are the ends. Square brackets hold non-standard residues; d marks the D form. Peptide text beside a SMILES is read from it. I, II: the chains in the order shown. Actinocin(9to1) = Cc1c2oc3c(C)ccc(C(=O)[*:1])c3nc-2c(C(=O)[*:2])c(N)c1=O; NMeV = CN[C@H](C(=O)O)C(C)C; Sar = CNCC(=O)O
Tests used:
[1] = target: T1, Telomerase reverse transcriptase (Homo sapiens, UniProt O14746); assay: Inhibitory activity against telomerase (Compound released from DNA/DNA heteroduplex derivatized resin [sequence (TTAGGG)3)
[2] = target: T1, Telomerase reverse transcriptase; assay: Inhibitory activity against telomerase (Compound released from underivatized resin
[3] = target: T1, Telomerase reverse transcriptase; assay: Inhibitory activity against telomerase (Compound released from RNA/DNA heteroduplex derivatized resin [sequence (TTAGGG)3)
[4] = target: T1, Telomerase reverse transcriptase; assay: Inhibitory activity against telomerase at 50 uM concentration (Compound released from underivatized resin
[5] = target: T1, Telomerase reverse transcriptase; assay: Inhibitory activity against telomerase at 50 uM concentration (Compound released from DNA/DNA heteroduplex derivatized resin [sequence (TTAGGG)3)
[6] = target: T1, Telomerase reverse transcriptase; assay: Inhibitory activity against telomerase at 50 uM concentration (Compound released from RNA/DNA heteroduplex derivatized resin [sequence (TTAGGG)3)

T1 sequence (O14746 whole entry): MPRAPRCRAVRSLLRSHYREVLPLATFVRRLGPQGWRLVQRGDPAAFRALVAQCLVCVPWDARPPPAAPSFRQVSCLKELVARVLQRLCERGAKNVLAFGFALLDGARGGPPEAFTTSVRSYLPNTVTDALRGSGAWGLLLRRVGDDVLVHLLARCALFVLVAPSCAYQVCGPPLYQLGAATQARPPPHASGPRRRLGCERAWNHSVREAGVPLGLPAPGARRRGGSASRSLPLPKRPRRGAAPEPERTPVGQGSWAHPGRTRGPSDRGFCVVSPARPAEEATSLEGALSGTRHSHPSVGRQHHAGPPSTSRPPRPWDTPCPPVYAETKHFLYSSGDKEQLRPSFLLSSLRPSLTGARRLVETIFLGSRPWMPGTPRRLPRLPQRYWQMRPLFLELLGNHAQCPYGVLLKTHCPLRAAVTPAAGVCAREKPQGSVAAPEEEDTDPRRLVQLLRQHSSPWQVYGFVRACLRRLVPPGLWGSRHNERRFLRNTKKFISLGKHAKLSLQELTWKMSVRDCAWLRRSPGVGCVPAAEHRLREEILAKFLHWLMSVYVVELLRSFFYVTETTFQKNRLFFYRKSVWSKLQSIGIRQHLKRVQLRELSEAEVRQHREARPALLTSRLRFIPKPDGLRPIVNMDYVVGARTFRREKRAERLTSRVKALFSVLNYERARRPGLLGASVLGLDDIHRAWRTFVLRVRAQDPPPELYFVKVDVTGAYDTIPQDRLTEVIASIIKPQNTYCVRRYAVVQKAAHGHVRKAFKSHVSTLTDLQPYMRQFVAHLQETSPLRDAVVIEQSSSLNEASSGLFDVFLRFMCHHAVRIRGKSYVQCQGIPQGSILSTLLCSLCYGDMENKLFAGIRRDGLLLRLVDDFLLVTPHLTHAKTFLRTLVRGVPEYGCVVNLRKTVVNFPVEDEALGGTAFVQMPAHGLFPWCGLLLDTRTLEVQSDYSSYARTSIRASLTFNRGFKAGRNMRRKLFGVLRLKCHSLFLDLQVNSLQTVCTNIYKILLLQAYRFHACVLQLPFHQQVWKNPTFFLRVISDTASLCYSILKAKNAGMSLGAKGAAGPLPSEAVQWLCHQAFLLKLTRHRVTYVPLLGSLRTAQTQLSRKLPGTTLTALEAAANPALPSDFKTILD

| SMILES | IC50 [1] [µM] | IC50 [2] [µM] | IC50 [3] [µM] | inhibition [4] [%] | inhibition [5] [%] | inhibition [6] [%] |
| --- | --- | --- | --- | --- | --- | --- |
| Cc1c2oc3c(C)c(N)cc(C(=O)N[C@@H]4C(=O)N[C@H](C(C)C)C(=O)N5CCC[C@H]5C(=O)N(C)CC(=O)N(C)[C@@H](C(C)C)C(=O)O[C@@H]4C)c3nc-2c(C(=O)N[C@@H]2C(=O)N[C@H](C(C)C)C(=O)N3CCC[C@H]3C(=O)N(C)CC(=O)N(C)[C@@H](C(C)C)C(=O)O[C@@H]2C)c(N)c1=O | – | – | – | < 50 | < 50 | < 50 |
| CN(C)c1ccc2cc3ccc(N(C)C)cc3nc2c1 [ACRIDINE ORANGE] | 12.2 | 12.2 | 12.2 | – | – | – |
| CCOc1ccc2nc3cc(N)ccc3c(N)c2c1 [ETHACRIDINE] | 8.2 | 8.2 | 8.2 | – | – | – |
| CC[n+]1c(-c2ccccc2)c2cc(N)ccc2c2ccc(N)cc21 [HOMIDIUM BROMIDE] | 3.3 | 3.3 | 3.3 | – | – | – |

Other lines, results leading:

| IC50 [1] [µM] | IC50 [2] [µM] | IC50 [3] [µM] | inhibition [4] [%] | inhibition [5] [%] | inhibition [6] [%] | SMILES |
| --- | --- | --- | --- | --- | --- | --- |
| 21.7 | 21.7 | 21.7 | – | – | – | Cc1cc2cc3cc(C)c(N)cc3nc2cc1N |
| – | – | – | < 50 | < 50 | < 50 | COc1cccc2c1C(=O)c1c(O)c3c(c(O)c1C2=O)C[C@@](O)(C(=O)CO)C[C@@H]3O[C@H]1C[C@H](N)[C@H](O)[C@H](C)O1 |
| – | – | – | < 50 | < 50 | < 50 | COc1cccc2c1C(=O)c1c(O)c3c(c(O)c1C2=O)C[C@@](O)(C(C)=O)C[C@@H]3O[C@H]1C[C@H](N)[C@H](O)[C@H](C)O1 |
| – | – | – | < 50 | < 50 | < 50 | Cc1c2oc3c(C)ccc(C(=O)N[C@@H]4C(=O)N[C@H](C(C)C)C(=O)N5CCC[C@H]5C(=O)N(C)CC(=O)N(C)[C@@H](C(C)C)C(=O)O[C@@H]4C)c3nc-2c(C(=O)N[C@@H]2C(=O)N[C@H](C(C)C)C(=O)N3CCC[C@H]3C(=O)N(C)CC(=O)N(C)[C@@H](C(C)C)C(=O)O[C@@H]2C)c(N)c1=O (I: T[dV]P[Sar][NMeV] / II: T[dV]P[Sar][NMeV]; ester I:1-I:C, II:1-II:C; linker I:N-II:N via Actinocin(9to1)) |
